From ChEMBL document CHEMBL5346920, “Development of the "hidden" multi-target-directed ligands by AChE/BuChE for the treatment of Alzheimer's disease” (Eur J Med Chem, 2023)
Activity calls are given as the source filed them. The rule behind the calls is not given here.

Experiments:
[1] = Acute toxicity in zebra fish assessed as proportion of dead zebrafish at 5 to 10 ug/ml and measured every 24 hrs upto 120 hours post fertilization; design: species or system Danio rerio; conditions: in vivo, at 5 to 10 µg/mL, dose 5-10 µg/ml, read-out: Activity
Acetylcholinesterase [2] = target: T1, Acetylcholinesterase (Electrophorus electricus, UniProt O42275); test: Drug metabolism assessed as electric eel AChE-mediated 3-(4-fluorophenyl)-1-(2-hydroxyphenyl)prop-2-en-1-one formation treated at 150 mmol/L with 0.25U AChE and measured after 6 secs by HPLC analysis; assay type: ADME; conditions: 6 s, time 6 sec
T1 sequence (O42275 whole entry): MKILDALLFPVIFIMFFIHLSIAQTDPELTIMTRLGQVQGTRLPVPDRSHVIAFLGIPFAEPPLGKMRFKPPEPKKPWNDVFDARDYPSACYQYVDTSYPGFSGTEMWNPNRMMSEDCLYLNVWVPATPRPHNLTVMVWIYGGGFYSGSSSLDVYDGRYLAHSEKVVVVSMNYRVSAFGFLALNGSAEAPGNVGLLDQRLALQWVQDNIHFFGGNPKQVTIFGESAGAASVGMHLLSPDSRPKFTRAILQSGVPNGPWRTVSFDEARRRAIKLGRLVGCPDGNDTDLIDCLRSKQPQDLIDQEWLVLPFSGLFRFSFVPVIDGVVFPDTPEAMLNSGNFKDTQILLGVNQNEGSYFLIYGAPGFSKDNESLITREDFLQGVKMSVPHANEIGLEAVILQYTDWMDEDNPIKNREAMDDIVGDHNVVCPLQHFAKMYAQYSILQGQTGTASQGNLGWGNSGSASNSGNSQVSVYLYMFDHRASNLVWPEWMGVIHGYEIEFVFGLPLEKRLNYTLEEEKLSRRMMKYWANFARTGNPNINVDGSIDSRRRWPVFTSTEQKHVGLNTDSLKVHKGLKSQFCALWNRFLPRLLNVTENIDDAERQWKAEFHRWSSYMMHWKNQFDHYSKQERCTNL

[3] = Stability of the compound in artificial intestinal juice assessed as parent compound remaining at 1 mg/ml measured after 8 hrs by UPLC-MS/MS analysis; assay type: ADME; conditions: read-out: Stability
BV-2 = test: Anti-inflammatory activity against LPS-stimulated mouse BV-2 cells assessed as inhibition of LPS-induced IL-6 production incubated for 24 hrs in presence of LPS; assay type: functional, cell-based; conditions: dose 1-9 µM
Danio rerio [4] = organism: Danio rerio; test: Antialzheimer activity against AlCl3-induced Alzheimer's disease zebra fish model assessed as improvement in total distance velocity at 0.0195 ug/ml treated for 24 hrs and measured after 24 hrs; assay type: functional, organism-based; conditions: dose 0.0195 µg/ml, time 48.0 hrs
Danio rerio [5] = organism: Danio rerio; test: Antialzheimer activity against AlCl3-induced Alzheimer's disease zebra fish model assessed as total distance moved at 0.0049 ug/ml treated for 24 hrs and measured after 24 hrs under dark environment (reference value: 312 cm); assay type: functional; conditions: dose 0.0049 µg/ml; time 48 hrs
Cholinesterase [6] = target: T2, Cholinesterase (Equus caballus, UniProt P81908); test: Drug metabolism assessed as equine serum BuChE-mediated 3-(4-fluorophenyl)-1-(2-hydroxyphenyl)prop-2-en-1-one formation treated at 150 mmol/L with 0.05U BuChE and measured after 9 mins by HPLC analysis; assay type: ADME, cell-free; conditions: horse, 0.15 h
T2 sequence (P81908 whole entry): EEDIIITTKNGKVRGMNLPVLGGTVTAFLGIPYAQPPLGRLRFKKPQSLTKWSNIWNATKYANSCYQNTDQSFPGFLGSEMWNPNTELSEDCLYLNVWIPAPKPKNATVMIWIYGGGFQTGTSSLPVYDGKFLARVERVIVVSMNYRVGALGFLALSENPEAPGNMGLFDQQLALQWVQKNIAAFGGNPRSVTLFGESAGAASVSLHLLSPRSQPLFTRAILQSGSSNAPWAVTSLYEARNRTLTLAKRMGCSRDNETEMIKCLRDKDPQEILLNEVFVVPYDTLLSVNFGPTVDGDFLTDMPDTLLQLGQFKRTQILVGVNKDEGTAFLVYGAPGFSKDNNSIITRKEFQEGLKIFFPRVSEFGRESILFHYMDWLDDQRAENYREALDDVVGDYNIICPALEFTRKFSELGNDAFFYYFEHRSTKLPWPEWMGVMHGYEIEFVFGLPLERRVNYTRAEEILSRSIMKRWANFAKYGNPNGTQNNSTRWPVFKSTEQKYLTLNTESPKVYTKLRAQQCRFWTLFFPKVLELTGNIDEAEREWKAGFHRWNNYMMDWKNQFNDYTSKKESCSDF

[7] = target: T3, Amine oxidase [flavin-containing] A (Homo sapiens, UniProt P21397); test: Inhibition of human recombinant MAO-A expressed in baculovirus-infected BTI cells using kynuramine as substrate incubated for 30 mins by fluorescence based analysis
T3 sequence (P21397 whole entry): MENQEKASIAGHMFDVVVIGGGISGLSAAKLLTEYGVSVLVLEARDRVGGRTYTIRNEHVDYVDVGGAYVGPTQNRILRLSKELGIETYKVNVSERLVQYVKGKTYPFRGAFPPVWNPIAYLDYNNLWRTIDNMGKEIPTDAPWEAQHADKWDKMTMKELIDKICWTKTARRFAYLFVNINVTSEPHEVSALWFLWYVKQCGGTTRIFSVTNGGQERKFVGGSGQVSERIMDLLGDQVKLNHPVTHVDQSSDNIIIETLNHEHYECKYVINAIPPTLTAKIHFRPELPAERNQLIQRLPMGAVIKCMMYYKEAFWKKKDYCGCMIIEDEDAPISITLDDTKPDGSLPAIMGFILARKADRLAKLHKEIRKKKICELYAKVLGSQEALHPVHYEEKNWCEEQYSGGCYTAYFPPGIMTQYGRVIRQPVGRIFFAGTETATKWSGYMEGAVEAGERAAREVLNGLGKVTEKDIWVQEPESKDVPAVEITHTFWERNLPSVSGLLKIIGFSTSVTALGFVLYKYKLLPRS

Acetylcholinesterase [8] = target: T1, Acetylcholinesterase; test: Drug metabolism assessed as electric eel AChE-mediated 3-(4-fluorophenyl)-1-(2-hydroxyphenyl)prop-2-en-1-one formation treated with 0.25U AChE for 9 mins by HPLC analysis; assay type: ADME; conditions: 0.15 h
Cholinesterase [9] = target: T2, Cholinesterase; test: Drug metabolism assessed as equine serum BuChE-mediated 3-(4-fluorophenyl)-1-(2-hydroxyphenyl)prop-2-en-1-one formation treated at 150 mmol/L with 0.25U BuChE and measured after 6 mins by HPLC analysis; assay type: ADME, cell-free; conditions: horse, 0.1 h
Danio rerio [10] = organism: Danio rerio; test: Antialzheimer activity against AlCl3-induced Alzheimer's disease zebra fish model assessed as total distance moved at 0.0049 ug/ml treated for 24 hrs and measured after 24 hrs under alternating light dark stimuli conditions (reference value: 543 cm); assay type: functional; conditions: dose 0.0049 µg/ml; time 48 hrs
[11] = Stability of the compound in blank gastric juice assessed as parent compound remaining at 1 mg/ml measured after 8 hrs by UPLC-MS/MS analysis; assay type: ADME; conditions: read-out: Stability
[12] = target: Cholinesterase (Equus caballus) (UniProt P81908); test: Reversible inhibition of equine serum BuChE assessed as enzyme activity using butyrylthiocholine chloride as substrate measured after dilution to 0.1XIC50 for 240 mins by Ellman's method; assay type: cell-free; design: scale not given: the % may be the effect or the level left
Sequence of Cholinesterase (Equus caballus) (P81908 whole entry): as the sequence (P81908 whole entry) above

[13] = Stability of the compound in blank intestinal juice assessed as parent compound remaining at 1 mg/ml measured after 8 hrs by UPLC-MS/MS analysis; assay type: ADME; conditions: read-out: Stability
Danio rerio [14] = organism: Danio rerio; test: Neuroprotective activity against AlCl3-induced Alzheimer's disease zebra fish model assessed as distance velocity at 0.078 ug/ml treated for 24 hrs and measured after 24 hrs under dark environment (reference value: 10.4 cm/min); assay type: functional; conditions: dose 0.078 µg/ml; time 48 hrs
Cholinesterase [15] = target: T2, Cholinesterase; test: Drug metabolism assessed as equine serum BuChE-mediated 3-(4-fluorophenyl)-1-(2-hydroxyphenyl)prop-2-en-1-one formation treated at 150 mmol/L with 0.25U BuChE and measured after 6 secs by HPLC analysis; assay type: ADME, cell-free; conditions: horse, 6 s, time 6 sec
[16] = Acute toxicity in zebra fish assessed as effect on liver fluorescence area at 0.3125 to 1.25 ug/ml and measured at 120 hpf by microscopic analysis; design: species or system Danio rerio; conditions: zebrafish; dose 0.3125-1.25 µg/ml
[17] = target: Cholinesterase (Equus caballus) (UniProt P81908); test: Reversible inhibition of equine serum BuChE assessed as enzyme activity using butyrylthiocholine chloride as substrate measured after dilution to 0.1XIC50 by Ellman's method; assay type: cell-free; design: scale not given: the % may be the effect or the level left
[18] = Stability of the compound in rat plasma assessed as parent compound remaining at 10 ug/ml measured after 3 hrs by UPLC-MS/MS analysis; assay type: ADME, cell-free; conditions: at 10 µg/mL, read-out: Stability
[19] = Metal chelating activity assessed as compound-Zn2+ complex formation at 37.5 uM incubated for 30 mins in presence of ZnCl2 by UV-Vis spectrometry
PC-12 [20] = test: Neuroprotective activity against Amyloid beta(25 to 35)-induced cell injury in rat PC12 cells assessed as cell viability at 20 uM pretreated for 2 hrs followed by incubation with Abeta(25 to 35) for 24 hrs by CCK-8 assay (reference value: 41 to 58.6%); assay type: functional; conditions: time 26 hrs, read-out: Activity
PC-12 [21] = test: Neuroprotective activity against Amyloid beta(25 to 35)-induced cell injury in rat PC12 cells assessed as cell viability at 5 uM pretreated for 2 hrs followed by incubation with Abeta(25 to 35) for 24 hrs by CCK-8 assay (reference value: 41 to 58.6%); assay type: functional; conditions: time 26 hrs, read-out: Activity
Danio rerio [22] = organism: Danio rerio; test: Neuroprotective activity against AlCl3-induced Alzheimer's disease zebra fish model assessed as distance velocity at 0.0195 ug/ml treated for 24 hrs and measured after 24 hrs under alternating light dark stimuli conditions (reference value: 9 cm/min); assay type: functional; conditions: dose 0.0195 µg/ml; time 48 hrs
[23] = Metal chelating activity assessed as compound-Al3+ complex formation by measuring maximum absorption wavelength shift from 316 to 434 nm at 37.5 uM incubated for 30 mins in presence of AlCl3 by UV-Vis spectrometry
Cholinesterase [24] = target: T2, Cholinesterase; test: Drug metabolism assessed as equine serum BuChE-mediated 3-(4-fluorophenyl)-1-(2-hydroxyphenyl)prop-2-en-1-one formation treated at 150 mmol/L with 0.001U BuChE and measured after 9 mins by HPLC analysis; assay type: ADME, cell-free; conditions: horse, 0.15 h

For CCN(C)C(=O)Oc1ccccc1C(=O)/C=C/c1ccc(F)cc1, the mortality [1] was 100%, the Drug metabolism (Acetylcholinesterase [2]) was 1.46 mmol/L and the remaining at 8 h, 1 mg/ml [3] was 104%. The Activity (BV-2) was “Dose-Dependent Effect”, the Activity (Danio rerio [4]) was “Active” and the Activity (Danio rerio [5]) was 391 cm. It also gave a Drug metabolism (Cholinesterase [6]) of 14.17 mmol/L, an IC50 [7] of 38.2 µM and a Km (Acetylcholinesterase [8]) of 85.3 µM. The Drug metabolism (Cholinesterase [9]) was 14.62 mmol/L, the Activity (Danio rerio [10]) was 764 cm and the remaining at 8 h, 1 mg/ml [11] was 103%. For the same compound, the Activity [12] was 93.3%, the remaining at 8 h, 1 mg/ml [13] was 98.5% and the Activity (Danio rerio [14]) was 17.9 cm/min. For the same compound, the Drug metabolism (Cholinesterase [15]) was 1.51 mmol/L, the Activity [16] was “Non-Toxic” and the Activity [17] was 52.6%. The remaining at 3 h, 10 ug/ml [18] was 99.3%, the Activity [19] was “inactive” and the viability at 20 µM (PC-12 [20]) was 79.7%. The viability at 5 µM (PC-12 [21]) was 70.9%, the Activity (Danio rerio [22]) was 15.3 cm/min and the Activity [23] was “inactive”. It also gave a Drug metabolism (Cholinesterase [24]) of 2.52 mmol/L.
